Values joined by “and” are separate entries in the source; they are usually repeats but may differ in a detail not shown here. Equal values may be shown once.
Test system: Patients with a clinical diagnosis of non-alcoholic hepatic steatosis
Assay: Liver enzymes (serum ALT, AST, GGT, AP, bilirubin), phase II clinical trial;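 as to Serum bilirubin, Mean ± SD: unit mg/dL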
Format: in vivo, human
Conditions: for patients fulfilling outcome criterion ALT<ULN: patients with ALT>1.0 at baseline; for patients fulfilling outcome criterion ALT<1.5 ULN: patients with ALT>1.5 at baseline
Method: A double-blinded, randomized, placebo-controlled phase II clinical trial was conducted as described in the following.
Patients with a clinical diagnosis of non-alcoholic hepatic steatosis were randomized to a 12-week treatment period and a 4-week follow-up. Patients were divided into three groups. The first groups received 1,500 mg Nor-UDCA per day (6 capsules with 250 mg Nor-UDCA in each capsule). The second group received 500 mg Nor-UDCA per day (2 capsules with 250 mg Nor-UDCA in each capsule and 4 capsules with 250 mg placebo in each capsule). The third group received 6 capsules with 250 mg placebo in each capsule.
The effects of Nor-UDCA on liver enzyme values have been assessed with respect to the courses of ALT, AST, GGT, AP and serum bilirubin. In addition, treatment effects with respect to pre-defined outcome criteria based on the upper limits of normal (ULN) of ALT, AST and GGT were examined.
The serum levels of ALT, AST, GGT, AP and serum bilirubin were determined by established standard laboratory methods.

[1] = N1500 (1,500 mg/day), V2 baseline week 0
[2] = N1500 (1,500 mg/day), V3 week 2
[3] = N1500 (1,500 mg/day), V4 week 4
[4] = N1500 (1,500 mg/day), V5 week 8
[5] = N1500 (1,500 mg/day), V6 (LOCF)
[6] = N1500 (1,500 mg/day), V6 (LOCF)-V2
[7] = N1500 (1,500 mg/day), V6 week 12

Compound: CC(CC(=O)O)[C@H]1CCC2[C@H]3C(CC[C@@]21C)[C@@]1(C)CCC(O)C[C@H]1C[C@@H]3O (some centres unmarked) [Nor-UDCA, 24-nor-ursodeoxycholic acid]
- patients fulfilling outcome criterion ALT<ULN (N500 (500 mg/day)): 16.9%
- patients fulfilling outcome criterion ALT<1.5 ULN (N500 (500 mg/day)): 37.9%
- mean absolute change of ALT from V2 to V6-LOCF (N1500 (1,500 mg/day)): −17.2 U/I
- patients fulfilling criterion AST>0.33 ULN to ≤0.67 ULN (N1500 (1,500 mg/day)): 32.7%
- patients fulfilling outcome criterion GGT>0.33 ULN to ≤0.67 (N1500 (1,500 mg/day)): 21.6%
- patients with combined criterion of ALT and/or AST decrease 15% (N1500 (1,500 mg/day)): 71.6%
- proportion of patients fulfilling criterion AST<1.5 ULN (N1500 (1,500 mg/day)): 75.0%
- proportion of patients fulfilling criterion AST<ULN (N1500 (1,500 mg/day)): 54.5%
- proportion of patients, criterion GGT ULN (N1500 (1,500 mg/day)): 31.0%
- GGT (N1500 (1,500 mg/day), V2): 178.8 U/I
- ALT, Mean ± SD [1]: 78.6 ± 34.2 U/l
- ALT/AST, Mean ± SD [1]: 1.68 ± 0.53
- AP, Mean ± SD [1]: 92.0 ± 36.6 U/l
- AST, Mean ± SD [1]: 49.3 ± 25.1 U/l
- GGT, Mean ± SD [1]: 178.8 ± 205.6 U/l
- Serum bilirubin, Mean ± SD [1]: 0.61 ± 0.32 mg/dL
- change of AST (N1500 (1,500 mg/day), V2 to V6-LOCF): −8.7 U/I
- ALT, Mean ± SD [2]: 72.8 ± 33.1 U/l
- ALT/AST, Mean ± SD [2]: 1.66 ± 0.41
- AP, Mean ± SD [2]: 95.4 ± 40.1 U/l
- AST, Mean ± SD [2]: 43.7 ± 15.7 U/l
- GGT, Mean ± SD [2]: 170.1 ± 217.9 U/l
- Serum bilirubin, Mean ± SD [2]: 0.52 ± 0.26 mg/dL
- ALT, Mean ± SD [3]: 62.6 ± 24.7 U/l
- ALT/AST, Mean ± SD [3]: 1.53 ± 0.41
- AP, Mean ± SD [3]: 90.9 ± 32.0 U/l
- AST, Mean ± SD [3]: 42.6 ± 19.9 U/l
- GGT, Mean ± SD [3]: 128.5 ± 126.1 U/l
- Serum bilirubin, Mean ± SD [3]: 0.53 ± 0.26 mg/dL
- ALT, Mean ± SD [4]: 62.0 ± 27.9 U/l
- ALT/AST, Mean ± SD [4]: 1.54 ± 0.34
- AP, Mean ± SD [4]: 91.1 ± 33.3 U/l
- AST, Mean ± SD [4]: 40.5 ± 16.3 U/l
- GGT, Mean ± SD [4]: 111.5 ± 112.7 U/l
- Serum bilirubin, Mean ± SD [4]: 0.54 ± 0.28 mg/dL
- ALT, Mean ± SD [5]: 61.8 ± 28.3 U/l
- ALT/AST, Mean ± SD [5]: 1.54 ± 0.34
- AP, Mean ± SD [5]: 91.8 ± 32.1 U/l
- AST, Mean ± SD [5]: 40.8 ± 19.1 U/l
- GGT, Mean ± SD [5]: 111.7 ± 116.3 U/l
- Serum bilirubin, Mean ± SD [5]: 0.57 ± 0.31 mg/dL
- ALT change, Mean ± SD [6]: −17.2 ± 23.3 U/l
- ALT/AST ratio change, Mean ± SD [6]: −0.14 and −0.14 ± 0.42
- AST change, Mean ± SD [6]: −8.7 ± 13.6 U/l
- Serum bilirubin change, Mean ± SD [6]: -0.03 ± 0.20 mg/dL
- GGT (N1500 (1,500 mg/day), V6-LOCF): 111.7 U/I
- ALT, Mean ± SD [7]: 62.8 ± 29.1 U/l
- ALT/AST, Mean ± SD [7]: 1.55 ± 0.34
- AP, Mean ± SD [7]: 92.9 ± 31.3 U/l
- AST, Mean ± SD [7]: 41.3 ± 19.8 U/l
- GGT, Mean ± SD [7]: 109.6 ± 115.8 U/l
- Serum bilirubin, Mean ± SD [7]: 0.56 ± 0.32 mg/dL
- patients fulfilling outcome criterion ALT≤0.8 ULN (N1500 (1,500 mg/day), patients with ALT>0.8 at baseline): 17.5%
- patients fulfilling outcome criterion ALT<ULN (N1500 (1,500 mg/day)): 35.7%
- patients fulfilling outcome criterion ALT<1.5 ULN (N1500 (1,500 mg/day)): 53.1%
- differences in the course of AP and serum bilirubin values between N1500, N500 and Placebo (N1500 and N500 versus Placebo): no relevant differences
